# Several values for one entry are separate records, joined by “and”; a condition that tells them apart may be missing. Equal entries are not always repeated.
# Tests used:
# Type in all cases: in vivo
# [1] = test system: paclitaxel-induced neuropathic pain model in SD rats; test: von Frey mechanical allodynia, paclitaxel-induced neuropathic pain model; settings: for Mean value of mechanical paw withdrawal threshold: s.c., D-3/D3/D9
# Protocol: (§1) All female SD rats were measured on day −5 (D-5) and day −4 (D-4) for basal values of von Frey mechanical allodynia and acetone cold allodynia (the day on formally establishing the model with paclitaxel administration was recorded as DO). SD rats were randomly divided into 5 groups according to body weight, which were blank control group, vehicle control (Vehicle control), s.c., D-3/D3/D9 group, DS002 0.1 mg/kg, s.c., D-3/D3/D9 group, DS002 0.5 mg/kg, s.c., D-3/D3/D9 group, DS002 2.5 mg/kg, s.c., D-3/D3/D9 group, respectively. Except for the blank control group, the other groups of animals were injected intraperitoneally with a chemotherapeutic agent solution on DO, D2, D4 and D6, respectively, to establish a chemotherapeutic agent-induced neuropathic pain model in SD rats. Wherein, von Frey is a stimulating material used in the measurement method of mechanical stimulation pain threshold; acetone is a stimulating substance used in the measurement method of cold pain threshold.
# (§2) Except for the blank control group, the other four groups were administered subcutaneously with DS002 on D-3, D3 and D9, respectively, and the von Frey echanical allodynia and acetone cold allodynia were measured on D7, D14 and D8, D15, respectively. The mechanical paw withdrawal threshold and the score and frequency of acetone-induced foot withdrawal behavior at the corresponding time point were recorded (for testing and calculation methods, see Yoon et al., pain, 59(3), 369-376. & Flatters et al., pain, 2004, 109 (1-2):150-161).
# (§3) The above experimental method was used, except for the blank control group, the other groups of animals were injected intraperitoneally with a chemotherapeutic agent solution (4 mg/kg) on DO, D2, D4 and D6, respectively, to establish a paclitaxel-induced neuropathic pain model in SD rats, namely the CIPN pain model.
# [2] = test system: vincristine-induced neuropathic pain model in SD rats; test: acetone cold allodynia, vincristine-induced neuropathic pain model; settings: s.c.
# Protocol: as §1, §2
# With reference to the above-mentioned experimental method and Example 1, except for the blank control group, the other groups of animals were injected intraperitoneally with a vincristine solution (0.1 mg/kg) from DO to D9, respectively, to establish a vincristine-induced neuropathic pain model in SD rats, namely, the CIPN pain model.
# [3] = test system: cisplatin-induced neuropathic pain model in SD rats; test: von Frey mechanical allodynia, cisplatin-induced neuropathic pain model; settings: for Mean value of mechanical paw withdrawal threshold: s.c.
# Protocol: as §1, §2
# With reference to the above-mentioned experimental method and Example 1, except for the blank control group, the animals of other groups were injected with a cisplatin solution (4 mg/kg) in the tail veins on DO and D6, respectively, to establish a cisplatin-induced neuropathic pain model in SD rats, namely the CIPN pain model.
# The basal values of the mechanical allodynia and cold allodynia were measured on day 5 (D-5) and day 4 (D-4) before modeling. On day 3 (D-3), the normal rats were divided into 4 groups by random block method and administered according to their body weight. The average weight of animals in each group after grouping was about 250 g. As for the animals of blank control group, vehicle control, s.c., D-3/D3/D9/D16 group, test sample DS002, 0.02 mg/kg, s.c., D-3/D3/D9/D16 group and test sample DS002, 0.5 mg/kg, s.c., D-3/D3/D9/D16 group, the basal values of mechanical paw withdrawal threshold were 26.00±0.00 g, 23.95±1.63 g, 23.50±1.68 g and 22.77±1.71 g, respectively; the basal values of acetone-induced foot withdrawal behavior total score were 0.50±0.34, 0.55±0.31, 0.27±0.19 and 0.55±0.28, respectively; the basal values of the response frequency were 6.00±4.27%, 7.27±4.07%, 3.64±2.44% and […], respectively.
# [4] = test system: paclitaxel-induced neuropathic pain model in SD rats; test: acetone cold allodynia, paclitaxel-induced neuropathic pain model; settings: 0.1 mg/kg, s.c., D-3/D3/D9, D8
# Protocol: as §1, §2, §3
# [5] = 0.1 mg/kg, D-3/D3/D9, D-4 basal value before administration
# [6] = 0.5 mg/kg, D-3/D3/D9, D-4 basal value before administration
# [7] = 2.5 mg/kg, D-3/D3/D9, D-4 basal value before administration
substance,measurement,setting,value
"DS002: humanized recombinant monoclonal antibody targeting nerve growth factor, IgG1 subtype, kappa light chain; heavy/light chain SEQ ID NO:3 and 4",Mean value of mechanical paw withdrawal threshold,"[1]; 0.1 mg/kg, D7, paclitaxel model",8.90 ± 1.20 g
same,Mean value of mechanical paw withdrawal threshold,"[1]; 0.1 mg/kg, D14, paclitaxel model",10.55 ± 1.04 g
same,Mean value of mechanical paw withdrawal threshold,"[1]; 0.1 mg/kg, D-5 basal value before administration, paclitaxel model",13.48 ± 1.03 g
same,Mean value of mechanical paw withdrawal threshold,"[1]; 0.5 mg/kg, D7, paclitaxel model",10.40 ± 1.33 g
same,Mean value of mechanical paw withdrawal threshold,"[1]; 0.5 mg/kg, D14, paclitaxel model",10.94 ± 1.16 g
same,Mean value of mechanical paw withdrawal threshold,"[1]; 0.5 mg/kg, D-5 basal value before administration, paclitaxel model",13.25 ± 0.98 g
same,Mean value of mechanical paw withdrawal threshold,"[1]; 2.5 mg/kg, D7, paclitaxel model",7.74 ± 1.19 g
same,Mean value of mechanical paw withdrawal threshold,"[1]; 2.5 mg/kg, D14, paclitaxel model",12.30 ± 0.94 g
same,Mean value of mechanical paw withdrawal threshold,"[1]; 2.5 mg/kg, D-5 basal value before administration, paclitaxel model",13.50 ± 0.82 g
same,pain threshold,"[1]; 0.1-2.5 mg/kg subcutaneously every 6 days for 3 consecutive times, paclitaxel-induced rat neuropathic pain model, summary in words",preventatively increased
same,mechanical paw withdrawal threshold of rats compared with the Vehicle control,"[1]; paclitaxel model, summary in words",significantly increased
same,Mean value of response frequency of cold allodynia,"[2]; 0.1 mg/kg, D-3/D3/D9, D8",58.00±6.96% and 58.00%
same,Mean value of acetone-induced foot withdrawal behavior total score,"[2]; 0.1 mg/kg, D-3/D3/D9, D15",3.00
same,Mean value of response frequency of cold allodynia,"[2]; 0.1 mg/kg, D-3/D3/D9, D15",42.00%
same,Mean value of acetone-induced foot withdrawal behavior total score,[2]; [5],0.10
same,Mean value of response frequency of cold allodynia,[2]; [5],2.00%
same,Mean value of response frequency of cold allodynia,"[2]; 0.5 mg/kg, D-3/D3/D9, D8",44.00±7.77% and 44.00%
same,Mean value of acetone-induced foot withdrawal behavior total score,"[2]; 0.5 mg/kg, D-3/D3/D9, D15",2.80
same,Mean value of response frequency of cold allodynia,"[2]; 0.5 mg/kg, D-3/D3/D9, D15",34.00%
same,Mean value of acetone-induced foot withdrawal behavior total score,[2]; [6],0.30
same,Mean value of response frequency of cold allodynia,[2]; [6],4.00%
same,Mean value of response frequency of cold allodynia,"[2]; 2.5 mg/kg, D-3/D3/D9, D8",44.00±4.99% and 44.00%
same,Mean value of acetone-induced foot withdrawal behavior total score,"[2]; 2.5 mg/kg, D-3/D3/D9, D15",1.80
same,Mean value of response frequency of cold allodynia,"[2]; 2.5 mg/kg, D-3/D3/D9, D15",24.00%
same,Mean value of acetone-induced foot withdrawal behavior total score,[2]; [7],0.30
same,Mean value of response frequency of cold allodynia,[2]; [7],4.00%
same,Mean value of mechanical paw withdrawal threshold,"[3]; 0.02 mg/kg, D-3/D3/D9/D16, D7",8.87 ± 1.98 g
same,Mean value of mechanical paw withdrawal threshold,"[3]; 0.02 mg/kg, D-3/D3/D9/D16, D14",7.22 ± 0.77 g
same,Mean value of mechanical paw withdrawal threshold,"[3]; 0.02 mg/kg, D-3/D3/D9/D16, D21",14.22 ± 2.63 g
same,Mean value of mechanical paw withdrawal threshold,"[3]; 0.02 mg/kg, D-3/D3/D9/D16, D-5 basal value before administration",23.50 ± 1.68 g
same,Mean value of mechanical paw withdrawal threshold,"[3]; 0.5 mg/kg, D-3/D3/D9/D16, D7",7.62 ± 1.18 g
same,Mean value of mechanical paw withdrawal threshold,"[3]; 0.5 mg/kg, D-3/D3/D9/D16, D14",10.73 ± 1.60 g
same,Mean value of mechanical paw withdrawal threshold,"[3]; 0.5 mg/kg, D-3/D3/D9/D16, D21",16.37 ± 2.36 g
same,Mean value of mechanical paw withdrawal threshold,"[3]; 0.5 mg/kg, D-3/D3/D9/D16, D-5 basal value before administration",22.77 ± 1.71 g
same,mechanical paw withdrawal threshold of rats compared with the Vehicle control,[3]; summary in words,significantly increased
same,Mean value of acetone-induced foot withdrawal response score,[4],3.70
same,Mean value of response frequency of cold allodynia,[4],63.50%

# From patent US20240009304A1, “USE OF NGF ANTIBODY IN CIPN PAIN” (Dartsbio Pharmaceuticals Ltd., priority 2020, published 2024)
